Legend:
[1] = Microsomal stability (Human); type: in vitro ADME; settings: after 60 minutes
Experimental: (§1) Microsomal stability of disclosed compounds was investigated. The following table indicates the percent of compound remaining after 60 minutes.

[2] = target: T1, NMDAR2D (Homo sapiens, UniProt O15399); test: NMDAR agonist assay, [3H]MK-801 binding, NMDAR2D expressing HEK cell membranes; type: biochemical; settings: 50 μM glutamate; relative to 1 mM glycine
T1 construct: expressed in transfected cells; host or cells: HEK cells (membrane extract)
Experimental: (§2) Assays were conducted as described by Moskal et al., “GLYX-13: a monoclonal antibody-derived peptide that acts as an N-methyl-D-aspartate receptor modulator,” Neuropharmacology, 49, 1077-87, 2005. These studies were designed to determine if the test compounds act to facilitate NMDAR activation in NMDAR2A, NMDAR2B, NMDAR2C or NMDAR2D expressing HEK cell membranes as measured by increases in [^3H]MK-801 binding.
(§3) In the assay, 300 μg of NMDAR expressing HEK cell membrane extract protein was preincubated for 15 minutes at […] in the presence of saturating concentrations of glutamate (50 μM) and varying concentrations of test compound (1×10^−15M-1×10^−7M), or 1 mM glycine. Following the addition of 0.3 μCi of [3H]MK-801 (22.5 Ci/mmol), reactions were again incubated for 15 minutes at 25° C. (nonequilibrium conditions). Bound and free [3H]MK-801 were separated via rapid filtration using a Brandel apparatus.
(§4) In analyzing the data, the DPM (disintegrations per minute) of [3H]MK-801 remaining on the filter were measured for each concentration of test compound or for 1 mM glycine. The DPM values for each concentration of a ligand (N=2) were averaged. The baseline value was determined from the best fit curve of the DPM values modeled using the GraphPad program and the log(agonist) vs. response (three parameters) algorithm was then subtracted from all points in the dataset. The % maximal [^3H]MK-801 binding was then calculated relative to that of 1 mM glycine: all baseline subtracted DPM values were divided by the average value for 1 mM glycine. The EC50 and % maximal activity were then obtained from the best fit curve of the % maximal [3H]MK-801 binding data modelled using the GraphPad program and the log(agonist) vs. response (three parameters) algorithm.
(§5) The tables below summarize the results for the wild type […] NMDAR2A, NMDAR2B, NMDAR2C, and NMDAR2D, and whether the compound is not an agonist (−), is an agonist (+), or is a strong agonist (++), where column A is based on the % maximal [3H]MK-801 binding relative to 1 mM glycine (−=0; <100%=+; and >100%=++); and column B is based on log EC50 values (0=−; ≥1×10^−9 M (e.g., −8)=+; and <1×10^−9 M (e.g., −10)=++).

[3] = target: T2, NMDAR2D (Homo sapiens, UniProt O15399+Q05586); test: as above; type: biochemical; settings: 50 μM glutamate; read-out: NMDAR2D B: log EC50 (converted)
T2 construct: expressed in transfected cells; host or cells: HEK cells (membrane extract)
Experimental: as §2, §3, §4, §5

[4] = Oral pharmacokinetics in Sprague Dawley rats (plasma, brain, CSF); type: in vivo; settings: rat, 10 mg/kg
Experimental: In another experiment, Sprague Dawley rats were dosed per os (oral gavage) using a normal saline formulation containing 10 mg/kg of the compounds identified in the table below. Plasma, brain, and CSF samples were analyzed at various time points over a 24 hour period. The table below summarizes the results of the oral pharmacokinetics, where the first three values (Tmax, Cmax and AUClast) are plasma values.

[5] = target: T3, NMDAR2C (Homo sapiens, UniProt Q14957); test: NMDAR agonist assay, [3H]MK-801 binding, NMDAR2C expressing HEK cell membranes; type: biochemical; settings: 50 μM glutamate; relative to 1 mM glycine
T3 construct: expressed in transfected cells; host or cells: HEK cells (membrane extract)
Experimental: as §2, §3, §4, §5

[6] = Microsomal stability (Rat); type: in vitro ADME; settings: after 60 minutes
Experimental: as §1

[7] = Plasma stability (Rat); type: in vitro ADME; settings: after 60 minutes
Experimental: (§6) Plasma stability of disclosed compounds was investigated. The following table indicates the percent of compound remaining after 60 minutes.

[8] = Plasma stability (Human); type: in vitro ADME; settings: after 60 minutes
Experimental: as §6

[9] = system: Sprague Dawley rats; test: Porsolt forced swim test; type: in vivo
[10] = target: T4, NMDAR2B (Homo sapiens, UniProt Q13224); test: NMDAR agonist assay, [3H]MK-801 binding, NMDAR2B expressing HEK cell membranes; type: biochemical; settings: 50 μM glutamate
T4 construct: expressed in transfected cells; host or cells: HEK cells (membrane extract)
In short: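 Membranes from HEK cells (300 μg protein) preincubated 15 min with 50 μM glutamate plus compound (1×10^−15–1×10^−7 M) or 1 mM glycine, then with 0.3 μCi [3H]MK-801 for 15 min at 25° C. (nonequilibrium); filter-bound DPM, baseline-subtracted, expressed as % of 1 mM glycine; EC50 and % maximum from three-parameter fit.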

T4 sequence (Q13224 27-1484, species assumed, other chains not shown): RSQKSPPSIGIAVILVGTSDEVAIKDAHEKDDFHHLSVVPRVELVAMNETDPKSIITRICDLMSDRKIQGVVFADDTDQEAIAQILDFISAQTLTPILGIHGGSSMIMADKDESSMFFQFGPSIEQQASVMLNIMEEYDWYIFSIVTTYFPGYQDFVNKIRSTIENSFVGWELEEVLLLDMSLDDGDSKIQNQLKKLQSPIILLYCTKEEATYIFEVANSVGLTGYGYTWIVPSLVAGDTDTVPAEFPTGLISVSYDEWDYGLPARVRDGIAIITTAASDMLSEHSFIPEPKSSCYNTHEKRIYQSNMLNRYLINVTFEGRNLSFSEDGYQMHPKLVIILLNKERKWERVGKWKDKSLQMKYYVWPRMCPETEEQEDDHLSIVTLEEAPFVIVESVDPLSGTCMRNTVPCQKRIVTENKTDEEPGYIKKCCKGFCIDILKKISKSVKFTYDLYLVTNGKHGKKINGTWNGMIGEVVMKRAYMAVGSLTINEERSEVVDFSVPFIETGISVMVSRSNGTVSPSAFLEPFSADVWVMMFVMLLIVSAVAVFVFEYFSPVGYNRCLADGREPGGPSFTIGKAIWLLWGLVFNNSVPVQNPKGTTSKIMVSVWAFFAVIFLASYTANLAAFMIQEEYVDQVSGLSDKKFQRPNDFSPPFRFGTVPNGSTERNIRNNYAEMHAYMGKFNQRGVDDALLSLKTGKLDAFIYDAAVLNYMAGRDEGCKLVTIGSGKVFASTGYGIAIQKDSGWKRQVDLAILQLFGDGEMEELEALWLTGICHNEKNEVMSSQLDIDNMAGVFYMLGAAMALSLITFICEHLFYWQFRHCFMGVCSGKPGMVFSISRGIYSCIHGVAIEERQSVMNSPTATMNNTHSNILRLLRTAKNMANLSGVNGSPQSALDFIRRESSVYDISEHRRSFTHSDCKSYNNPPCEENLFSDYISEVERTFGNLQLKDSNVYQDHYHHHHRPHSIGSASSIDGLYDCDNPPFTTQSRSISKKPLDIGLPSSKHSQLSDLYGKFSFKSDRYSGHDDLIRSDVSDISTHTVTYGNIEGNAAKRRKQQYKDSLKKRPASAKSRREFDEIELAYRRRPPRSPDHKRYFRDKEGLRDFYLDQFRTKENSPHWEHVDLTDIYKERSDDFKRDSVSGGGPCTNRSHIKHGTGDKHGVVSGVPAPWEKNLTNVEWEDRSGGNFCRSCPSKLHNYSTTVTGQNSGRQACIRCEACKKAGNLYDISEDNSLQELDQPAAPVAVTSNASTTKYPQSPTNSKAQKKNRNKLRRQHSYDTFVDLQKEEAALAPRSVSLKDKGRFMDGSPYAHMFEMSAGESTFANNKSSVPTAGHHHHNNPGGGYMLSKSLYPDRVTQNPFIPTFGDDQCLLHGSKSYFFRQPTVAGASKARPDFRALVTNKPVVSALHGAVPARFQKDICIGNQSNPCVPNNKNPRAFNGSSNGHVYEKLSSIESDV
T3 sequence (Q14957 20-1233, species assumed, other chains not shown): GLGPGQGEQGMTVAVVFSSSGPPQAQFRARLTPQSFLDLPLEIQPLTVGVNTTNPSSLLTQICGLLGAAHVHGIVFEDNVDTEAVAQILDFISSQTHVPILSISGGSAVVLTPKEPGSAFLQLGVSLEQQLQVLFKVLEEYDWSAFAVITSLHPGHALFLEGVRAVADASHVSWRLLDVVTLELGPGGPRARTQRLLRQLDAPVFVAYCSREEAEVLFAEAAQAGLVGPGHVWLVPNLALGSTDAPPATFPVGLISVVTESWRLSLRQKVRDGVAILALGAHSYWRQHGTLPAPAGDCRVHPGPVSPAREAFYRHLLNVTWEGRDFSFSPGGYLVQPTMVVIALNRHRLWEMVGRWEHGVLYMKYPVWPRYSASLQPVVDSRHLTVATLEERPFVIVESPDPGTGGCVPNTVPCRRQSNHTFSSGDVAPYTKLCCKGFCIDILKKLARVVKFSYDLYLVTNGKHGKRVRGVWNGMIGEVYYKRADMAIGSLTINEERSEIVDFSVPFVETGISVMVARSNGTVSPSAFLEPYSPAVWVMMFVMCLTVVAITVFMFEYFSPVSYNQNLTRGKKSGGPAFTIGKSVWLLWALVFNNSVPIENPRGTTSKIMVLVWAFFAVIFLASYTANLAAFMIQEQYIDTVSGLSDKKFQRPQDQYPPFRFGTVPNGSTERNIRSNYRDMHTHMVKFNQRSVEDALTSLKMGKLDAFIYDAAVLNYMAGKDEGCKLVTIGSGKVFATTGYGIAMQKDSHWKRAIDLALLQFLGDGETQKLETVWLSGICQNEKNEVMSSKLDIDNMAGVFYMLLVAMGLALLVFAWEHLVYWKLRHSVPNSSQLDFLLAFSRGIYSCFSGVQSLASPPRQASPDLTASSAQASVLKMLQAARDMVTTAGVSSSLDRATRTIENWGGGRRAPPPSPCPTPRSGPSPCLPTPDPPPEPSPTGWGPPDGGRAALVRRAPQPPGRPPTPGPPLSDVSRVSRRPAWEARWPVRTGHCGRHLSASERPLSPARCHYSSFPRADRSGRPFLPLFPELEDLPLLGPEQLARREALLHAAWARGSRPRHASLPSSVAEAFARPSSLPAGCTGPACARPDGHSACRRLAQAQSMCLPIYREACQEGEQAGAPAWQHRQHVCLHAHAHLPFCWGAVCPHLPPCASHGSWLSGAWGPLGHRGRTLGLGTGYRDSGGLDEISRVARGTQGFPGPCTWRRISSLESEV
T1 sequence (O15399 28-1336, species assumed, other chains not shown): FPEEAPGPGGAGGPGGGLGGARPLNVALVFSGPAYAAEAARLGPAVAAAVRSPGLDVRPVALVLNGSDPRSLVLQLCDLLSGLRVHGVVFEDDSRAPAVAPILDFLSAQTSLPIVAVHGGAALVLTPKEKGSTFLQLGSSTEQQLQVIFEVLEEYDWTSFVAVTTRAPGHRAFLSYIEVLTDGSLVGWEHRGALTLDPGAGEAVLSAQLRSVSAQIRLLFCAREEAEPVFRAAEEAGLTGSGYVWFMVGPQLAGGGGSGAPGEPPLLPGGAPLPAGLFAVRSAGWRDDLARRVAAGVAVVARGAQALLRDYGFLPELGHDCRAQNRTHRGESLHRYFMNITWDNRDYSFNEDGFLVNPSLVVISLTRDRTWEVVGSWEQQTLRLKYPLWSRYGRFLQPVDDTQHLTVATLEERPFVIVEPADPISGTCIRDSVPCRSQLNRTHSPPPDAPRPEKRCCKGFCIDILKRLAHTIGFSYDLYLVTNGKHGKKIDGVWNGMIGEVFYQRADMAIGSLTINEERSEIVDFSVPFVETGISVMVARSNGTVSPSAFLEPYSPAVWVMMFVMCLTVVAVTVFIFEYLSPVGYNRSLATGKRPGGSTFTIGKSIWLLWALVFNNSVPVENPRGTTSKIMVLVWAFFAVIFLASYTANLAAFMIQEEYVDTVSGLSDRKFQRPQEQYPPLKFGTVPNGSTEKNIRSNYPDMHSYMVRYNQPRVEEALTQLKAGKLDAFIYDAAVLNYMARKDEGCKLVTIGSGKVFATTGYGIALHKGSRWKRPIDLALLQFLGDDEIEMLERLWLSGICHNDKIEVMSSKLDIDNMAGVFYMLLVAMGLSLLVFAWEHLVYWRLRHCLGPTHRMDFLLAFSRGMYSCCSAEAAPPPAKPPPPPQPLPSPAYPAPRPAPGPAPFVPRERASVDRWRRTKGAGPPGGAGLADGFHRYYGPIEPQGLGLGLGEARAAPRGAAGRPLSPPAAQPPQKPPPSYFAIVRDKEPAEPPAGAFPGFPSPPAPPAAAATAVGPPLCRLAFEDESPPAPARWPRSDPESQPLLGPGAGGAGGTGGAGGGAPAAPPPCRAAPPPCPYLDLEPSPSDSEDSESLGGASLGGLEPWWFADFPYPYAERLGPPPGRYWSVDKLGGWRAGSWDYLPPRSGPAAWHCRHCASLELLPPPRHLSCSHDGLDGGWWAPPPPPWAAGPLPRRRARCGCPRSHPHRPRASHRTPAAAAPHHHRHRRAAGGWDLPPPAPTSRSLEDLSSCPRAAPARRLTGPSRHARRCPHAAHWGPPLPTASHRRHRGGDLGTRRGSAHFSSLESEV
T2 sequence (O15399 28-1336, species assumed, other chains not shown): as above

SMILES: O=C1NCC=CC[C@]12CCCN2 [GA, (R)-1,7-diazaspiro[4.6]undec-9-en-6-one]
- Microsomal (Human): percent of compound remaining [1]: 94%
- NMDAR2D A: % maximal [3H]MK-801 binding relative to 1 mM glycine [2]: + (<100%=+)
- EC50 [3]: < 1 nM
- Tmax ([4]; Sprague-Dawley, po, per os, plasma, read-out: Tmax): 30 min
- AUC(0-t) ([4]; Sprague-Dawley, plasma, po, per os): 3860 ng·h/mL
- bioavailability ([4]; Sprague-Dawley, plasma, po, per os 10 mg/kg): 62%
- Cmax ([4]; Sprague-Dawley, plasma, po, per os, plasma, read-out: Cmax): 1960 ng/mL
- CSF Cmax ([4]; per os, CSF): 551.3 ng/mL
- Brain Cmax ([4]; per os, brain): 3963.2 ng/mL
- NMDAR2C A: % maximal [3H]MK-801 binding relative to 1 mM glycine [5]: 0%
- Microsomal (Rat): percent of compound remaining [6]: 90%
- Plasma (Rat): percent of compound remaining [7]: 100%
- Plasma (Human): percent of compound remaining [8]: 95%
- % reduction in float time ([9]; 1 wk post-dose, 0.00001 mg/kg): 55%
- Significance vs. vehicle ([9]; 1 wk post-dose, 0.00001 mg/kg): Yes
- % reduction in float time ([9]; 1 wk post-dose, 0.001 mg/kg): 71%
- Significance vs. vehicle ([9]; 1 wk post-dose, 0.001 mg/kg): Yes
- % reduction in float time ([9]; 1 wk post-dose, 0.1 mg/kg): 72%
- Significance vs. vehicle ([9]; 1 wk post-dose, 0.1 mg/kg): Yes
- % reduction in float time ([9]; 1 wk post-dose, 10.0 mg/kg): 44%
- Significance vs. vehicle ([9]; 1 wk post-dose, 10.0 mg/kg): Yes
- % reduction in float time ([9]; 1 h post-dose, 0.00001 mg/kg): 29%
- Significance vs. vehicle ([9]; 1 h post-dose, 0.00001 mg/kg): No
- % reduction in float time ([9]; 1 h post-dose, 0.001 mg/kg): 58%
- Significance vs. vehicle ([9]; 1 h post-dose, 0.001 mg/kg): Yes
- % reduction in float time ([9]; 1 h post-dose, 0.1 mg/kg): 67%
- Significance vs. vehicle ([9]; 1 h post-dose, 0.1 mg/kg): Yes
- % reduction in float time ([9]; 1 h post-dose, 10.0 mg/kg): 50%
- Significance vs. vehicle ([9]; 1 h post-dose, 10.0 mg/kg): No
- % reduction in float time ([9]; 24 h post-dose, 0.1 mg/kg): 64%
- Significance vs. vehicle ([9]; 24 h post-dose, 0.1 mg/kg): Yes
- EC50 ([10]; read-out: NMDAR2B B: log EC50 (converted)): ≥ 1 nM
- Emax ([10]; relative to 1 mM glycine, read-out: NMDAR2B A: % maximal [3H]MK-801 binding relative to 1 mM glycine): < 100%
